Source: US6265177A, “Enzyme assay for mutant firefly luciferase” (priority 1997, dated 2001)

Legend:
Assay type in all cases: biochemical
Settings in all cases: 21° C., 20 mM Tricine pH 7.8, 470 μM D-luciferin, ATP 6.25-800 μM, crude cell extract
[1] = molecular target: T1, Photinus pyralis luciferase mutant H245Q (His245Gln), SEQ ID NO: 6 (Photinus pyralis, UniProt P08659, H245Q); experiment: Luciferase assay of Km for MgATP, mutant H245Q
T1 construct: ID No. 6; made in house; host or cells: E. coli JM109, crude lysed cell extract, plasmid pPW601a
T1 sequence (P08659 whole entry H245Q): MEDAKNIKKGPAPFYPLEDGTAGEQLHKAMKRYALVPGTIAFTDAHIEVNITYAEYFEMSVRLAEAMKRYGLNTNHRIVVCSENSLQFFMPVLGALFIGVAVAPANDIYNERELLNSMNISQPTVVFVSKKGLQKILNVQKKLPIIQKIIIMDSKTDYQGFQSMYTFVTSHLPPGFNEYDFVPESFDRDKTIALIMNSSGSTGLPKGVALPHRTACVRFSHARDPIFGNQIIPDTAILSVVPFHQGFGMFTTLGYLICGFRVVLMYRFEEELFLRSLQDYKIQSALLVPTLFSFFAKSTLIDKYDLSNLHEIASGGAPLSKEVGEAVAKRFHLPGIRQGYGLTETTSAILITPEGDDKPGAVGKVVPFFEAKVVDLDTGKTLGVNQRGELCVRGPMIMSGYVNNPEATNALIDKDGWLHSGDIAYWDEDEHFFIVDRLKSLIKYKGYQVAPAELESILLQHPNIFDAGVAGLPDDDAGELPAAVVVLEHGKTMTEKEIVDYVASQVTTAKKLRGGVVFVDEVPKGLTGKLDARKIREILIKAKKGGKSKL
Experimental: (§1) SITE DIRECTED MUTAGENESIS: Three mutagenic oligonucleotides were used to create the mutations H245A, N and Q (Ala, Asn, or Gln--see Seq ID Nos. 2, 3 & 4). The equivalent wild-type sequence is shown at Seq ID No. 5. […] The mutagenesis was carried out in accordance with the kit instructions of kit supplied by Clontech laboratories Inc, Palo Alto, Calif. USA.
The amino acid sequence of H245Q is shown in Seq. ID No. 6.
(§2) CELL CULTURE AND EXTRACTION: E. coli JM109 transformants were grown to an OD600 =1.0. Aliquots of cells expressing mutant luciferases from plasmid pPW601a, were subjected to lysis as described in the Promega technical bulletin and the lysed extracts were then stored on ice prior to assay.
(§3) ASSAY OF Km OF MUTANT LUCIFERASES: luciferase assays were performed at 21° C. using 100 μl of assay buffer (20 mM Tricine pH 7.8 containing 2.0 mM MgSO4, 0.1 mM EDTA, 33 mM dithiotheitol, 470 μM D-luciferin and ATP in the concentration range 6.25-800 μM). Each assay contained 5-10 μl of crude cell extract.
(§4) Such plots kan be used to determine the Km.

[2] = molecular target: T2, Photinus pyralis luciferase mutant H245A (His245Ala) (Photinus pyralis, UniProt P08659, H245A); experiment: Luciferase assay of Km for MgATP, mutant H245A
T2 construct: made in house; host or cells: E. coli JM109, crude lysed cell extract, plasmid pPW601a
T2 sequence (P08659 whole entry H245A): as the sequence (P08659 whole entry H245Q) above, with Q245A counted along it
Experimental: as §1, §2, §3, §4

[3] = molecular target: T3, Photinus pyralis luciferase mutant H245N (His245Asn) (Photinus pyralis, UniProt P08659, H245N); experiment: Luciferase assay of Km for MgATP, mutant H245N
T3 construct: made in house; host or cells: E. coli JM109, crude lysed cell extract, plasmid pPW601a
T3 sequence (P08659 whole entry H245N): as the sequence (P08659 whole entry H245Q) above, with Q245N counted along it
Experimental: as §1, §2, §3, §4

[4] = molecular target: Photinus pyralis luciferase thermostable mutant A215L (printed A21SL) (Photinus pyralis, UniProt P08659, A215L); experiment: Luciferase assay of Km for MgATP, thermostable mutant A215L
Photinus pyralis luciferase thermostable mutant A215L (printed A21SL), sequence (P08659 whole entry A215L): as the sequence (P08659 whole entry H245Q) above, with A215L, Q245H counted along it
Experimental: as §2, §3, §4
*A215L is a thermostable mutant in which amino acid 215 is substituted with
lysine (see WO 96/22376 - SECRETARY OF STATE FOR DEFENCE).

[5] = molecular target: T4, Photinus pyralis luciferase, recombinant wild type (r Wild Type), luc gene SEQ ID NO: 1 (Photinus pyralis, UniProt P08659); experiment: Luciferase assay of Km for MgATP, recombinant wild type
T4 construct: made in house; host or cells: E. coli JM109, crude lysed cell extract, plasmid pPW601a
T4 sequence (P08659 whole entry): as the sequence (P08659 whole entry H245Q) above, with Q245H counted along it
Experimental: as §2, §3, §4

Nc1ncnc2c1ncn2[C@@H]1O[C@H](COP(=O)(O)OP(=O)(O)OP(=O)(O)O)[C@@H](O)[C@H]1O [MgATP]
Km [1]: 1340 µM | Km [2]: 442 µM | Km [3]: 623 µM | Km [4]: 65 µM | Km [5]: 66 µM
